Test results: PMC11721313, “Sustained inhibition of CSF1R signaling augments antitumor immunity through inhibiting tumor-associated macrophages” (JCI Insight, 2025)

Experiments:
Assay type in all cases: cell-based
[1] = target: CSF1R (colony-stimulating factor 1 receptor) (Homo sapiens, UniProt P07333); experiment: Western blot of M-CSF-induced CSF1R phosphorylation in human monocyte-derived macrophages
[2] = target: T1, CSF1R (colony-stimulating factor 1 receptor) (Mus musculus, UniProt P09581); experiment: Western blot of M-CSF-induced CSF1R phosphorylation in murine BMDMs and RAW264 cells; inhibition persists after drug washout
T1 sequence (P09581 20-977): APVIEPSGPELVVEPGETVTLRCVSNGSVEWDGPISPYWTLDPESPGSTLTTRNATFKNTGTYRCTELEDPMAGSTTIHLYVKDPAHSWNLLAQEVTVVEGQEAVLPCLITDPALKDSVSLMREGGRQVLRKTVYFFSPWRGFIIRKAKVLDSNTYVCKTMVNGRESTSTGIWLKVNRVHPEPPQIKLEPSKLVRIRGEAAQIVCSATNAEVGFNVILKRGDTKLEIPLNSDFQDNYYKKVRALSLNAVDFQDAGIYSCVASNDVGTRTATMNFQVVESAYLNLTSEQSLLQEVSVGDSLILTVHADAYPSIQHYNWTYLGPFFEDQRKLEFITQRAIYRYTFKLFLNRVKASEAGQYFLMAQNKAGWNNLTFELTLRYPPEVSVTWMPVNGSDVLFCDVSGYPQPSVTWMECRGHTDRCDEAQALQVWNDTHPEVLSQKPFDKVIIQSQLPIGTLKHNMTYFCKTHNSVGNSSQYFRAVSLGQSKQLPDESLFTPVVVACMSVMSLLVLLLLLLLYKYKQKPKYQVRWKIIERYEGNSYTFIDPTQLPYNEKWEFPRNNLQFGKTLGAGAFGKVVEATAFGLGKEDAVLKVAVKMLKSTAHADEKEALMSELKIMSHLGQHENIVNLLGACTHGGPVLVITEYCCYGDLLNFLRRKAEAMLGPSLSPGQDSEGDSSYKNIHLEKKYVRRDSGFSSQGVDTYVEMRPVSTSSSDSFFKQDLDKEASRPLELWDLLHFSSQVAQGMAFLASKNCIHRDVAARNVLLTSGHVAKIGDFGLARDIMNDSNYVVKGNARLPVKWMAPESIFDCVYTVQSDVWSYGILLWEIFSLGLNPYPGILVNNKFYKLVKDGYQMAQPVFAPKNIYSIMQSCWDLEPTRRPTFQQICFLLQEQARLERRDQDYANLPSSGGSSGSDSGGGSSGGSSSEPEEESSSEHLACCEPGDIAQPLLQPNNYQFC

[3] = target: T1, CSF1R (colony-stimulating factor 1 receptor); experiment: Western blot of CSF1R signaling in RAW264 cells with and without drug removal (reference CSF1R inhibitor)

Chain of CSF1R (colony-stimulating factor 1 receptor) (Homo sapiens, UniProt P07333) (P07333 20-972): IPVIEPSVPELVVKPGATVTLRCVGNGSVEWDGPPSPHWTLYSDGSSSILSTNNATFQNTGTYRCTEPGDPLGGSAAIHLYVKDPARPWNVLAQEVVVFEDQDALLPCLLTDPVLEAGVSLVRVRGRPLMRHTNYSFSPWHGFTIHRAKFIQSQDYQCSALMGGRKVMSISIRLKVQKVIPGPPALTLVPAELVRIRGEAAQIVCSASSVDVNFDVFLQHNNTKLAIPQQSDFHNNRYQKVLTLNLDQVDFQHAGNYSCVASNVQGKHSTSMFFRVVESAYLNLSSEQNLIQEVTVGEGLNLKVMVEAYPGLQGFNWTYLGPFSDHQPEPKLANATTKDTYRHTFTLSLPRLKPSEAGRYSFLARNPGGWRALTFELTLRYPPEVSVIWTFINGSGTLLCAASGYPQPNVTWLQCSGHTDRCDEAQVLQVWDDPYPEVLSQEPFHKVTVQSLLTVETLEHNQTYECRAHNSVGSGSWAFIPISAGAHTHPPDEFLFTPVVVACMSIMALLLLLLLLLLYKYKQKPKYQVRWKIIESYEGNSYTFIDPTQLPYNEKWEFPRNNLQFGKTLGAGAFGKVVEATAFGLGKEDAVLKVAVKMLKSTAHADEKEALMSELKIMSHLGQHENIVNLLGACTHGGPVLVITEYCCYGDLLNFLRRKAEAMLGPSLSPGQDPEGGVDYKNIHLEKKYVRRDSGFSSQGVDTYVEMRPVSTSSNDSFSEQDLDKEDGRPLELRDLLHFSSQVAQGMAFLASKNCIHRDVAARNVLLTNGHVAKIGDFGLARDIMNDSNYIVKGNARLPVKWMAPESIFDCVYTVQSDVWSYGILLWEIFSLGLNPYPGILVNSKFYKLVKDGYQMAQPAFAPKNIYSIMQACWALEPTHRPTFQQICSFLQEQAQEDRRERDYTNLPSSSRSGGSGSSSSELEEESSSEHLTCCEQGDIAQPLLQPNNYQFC

## CCCNc1nc(Nc2ccc(C#N)cc2)ncc1C#CCCCNC(=O)[C@H](C)N(C)C(=O)/C=C/CN(C)C [FF-10101]
[1]
  Western blot of M-CSF-induced CSF1R phosphorylation in human monocyte-derived ma: human monocyte-derived macrophages upon reexposure to M-CSF was markedly inhibited by FF-10101 in a dose-dependent manner
[2]
  Western blot of M-CSF-induced CSF1R phosphorylation in murine BMDMs and RAW264 c: upon reexposure to M-CSF was markedly inhibited by FF-10101 in a dose-dependent manner

## CNC(=O)c1cc(Oc2ccc3nc(N[C@@H]4CCCC[C@H]4O)sc3c2)ccn1 [BLZ945]
[3]
  Western blot of CSF1R signaling in RAW264 cells with and without drug removal (r): the inhibitory activity of BLZ945, another CSF1R inhibitor with an IC50 comparable to that of FF-10101, decreased upon drug removal
